The record followed here is patent US20100048727A1, “PERFLUOROKETONE COMPOUNDS AND USES THEREOF” (priority 2007, published 2010).

Assay [1] relates to EAE-induced SJL/J mice. Put plainly: Clinical course of EAE in SJL/J mice treated with fluoroketone compounds. The class given is in vivo.
The target in assay [2] is T1, human GIVA cPLA2 (Homo sapiens, UniProt P47712).
T1 sequence (P47712 1-749): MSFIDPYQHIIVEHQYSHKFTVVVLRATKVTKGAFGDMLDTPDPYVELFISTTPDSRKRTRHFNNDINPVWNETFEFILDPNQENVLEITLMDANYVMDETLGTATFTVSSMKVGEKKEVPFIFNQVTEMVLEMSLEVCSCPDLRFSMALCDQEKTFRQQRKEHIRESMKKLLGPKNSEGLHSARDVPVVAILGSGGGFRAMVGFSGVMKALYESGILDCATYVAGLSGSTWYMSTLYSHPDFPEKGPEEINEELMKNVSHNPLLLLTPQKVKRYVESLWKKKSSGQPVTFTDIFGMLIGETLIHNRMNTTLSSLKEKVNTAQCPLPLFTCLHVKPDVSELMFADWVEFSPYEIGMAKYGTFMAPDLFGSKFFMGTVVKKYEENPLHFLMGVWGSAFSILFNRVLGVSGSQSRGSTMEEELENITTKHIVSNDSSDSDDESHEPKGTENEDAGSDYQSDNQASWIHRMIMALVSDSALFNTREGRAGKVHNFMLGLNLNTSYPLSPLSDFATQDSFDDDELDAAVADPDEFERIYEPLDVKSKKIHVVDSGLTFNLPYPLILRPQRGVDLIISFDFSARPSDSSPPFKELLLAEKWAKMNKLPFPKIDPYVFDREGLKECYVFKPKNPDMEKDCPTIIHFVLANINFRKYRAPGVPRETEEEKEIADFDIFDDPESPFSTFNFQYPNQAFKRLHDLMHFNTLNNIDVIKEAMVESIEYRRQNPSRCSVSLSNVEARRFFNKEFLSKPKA
Nature of the assay: GIVA cPLA2 specific mixed micelle assay. The class given is biochemical. The note with it: 0.091 mole fraction. On the procedure: Inhibition of phospholipase A2 by perfluoroketone compounds. […] (2002) J. Med. Chem. 45: 2891-2893; Kokotos, G. et al. (2004). J. Med. Chem. 47: 3615-3628). The standard GVIA iPLA2 activity assay utilizes DPPC/Triton™ X-100 mixed micelles at a ratio of 1:4 as previously described (Stephens D. et al. (2006). J. Med. Chem., 49: 2821-2828). GV sPLA2 activity was measured in an assay similar to the assays for GIVA cPLA2 and GVIA iPLA2.

The structures appear in SMILES notation.

For the molecule `O=C(CCCCc1ccccc1)C(F)(F)C(F)(F)F` [FKGK11, 1,1,1,2,2-Pentafluoro-7-phenyl-3-heptanone], in assay [1] (delayed treatment from day 11, 5-point scale), the “clinical disability score between days 22-27” value turned out to be 0.8. Further, in assay [1] (delayed treatment from day 11, on day 17, 5-point scale), the “maximal clinical disability score” value amounted to 1.4. Further, the “clinical disability score at second peak” value in assay [1] (delayed treatment from day 11, on day 30, 5-point scale) was determined as 1.2. Moreover, the “severity and progression of the disease (EAE)” value in assay [1] (delayed treatment from day 11 after immunization, 2 weeks, i.p., vs vehicle) was “marked reduction”. Further, the “maximum clinical disability score” value in assay [1] (treatment before onset of symptoms, daily for 3 weeks from day 6, course until day 40, 5-point scale) was determined as 1.0 grade. The “clinical severity and progression of EAE” value in assay [1] (treatment before onset of symptoms, daily for 3 weeks from day 6, vs vehicle) is “marked reduction”. Also, in assay [2], the “Average percent inhibition GIVA cPLA2 (class symbol)” value was “N.D. (N.D. means compounds with less than 25% inhibition (or no detectable inhibition))”.
